Reference: US20080194585A1, “Fungicidal Pyrazine Derivatives” (priority 2005, published 2008)
Marks after values point to notes of the source that are not given here.

Experiments:
Botrytis cinerea = assay: Test E: tomato botrytis, preventive spray on tomato seedlings
Phytophthora infestans = assay: whole plant or invertebrate; format: in vivo
Plasmopara viticola = assay: Test D: grape downy mildew, spray after inoculation of grape seedlings; format: in vivo
Text: Upon removal, disease ratings were made. […] A dash (-) indicates no test results.

[1] = tested on: Colletotrichum orbiculare; assay: Test B: cucumber Colletotrichum anthracnose, preventive spray on cucumber seedlings
Pythium aphanidermatum = assay: Test A: bluegrass pythium blight, preventive spray on bluegrass seedlings
[2] = tested on: Puccinia recondita f. sp. tritici; assay: Test K: wheat leaf rust, preventive spray on wheat seedlings
fusarium graminearium = assay: Test I: wheat head scab, preventive spray on wheat seedlings
Protocol: (the causal agent of wheat head scab) and incubated in a saturated atmosphere at 20° C. for 72 h, and then moved to a growth chamber at 22° C. for 5 days, after which disease ratings were made.

[3] = tested on: Erysiphe graminis f. sp. tritici; assay: Test L: wheat powdery mildew, preventive spray on wheat seedlings
Septoria nodorum = assay: Test H: wheat glum blotch, preventive spray on wheat seedlings
Protocol: (the causal agent of wheat glum blotch) and incubated in a saturated atmosphere at 20° C. for 48 h, and then moved to a growth chamber at 22° C. for 5 days, after which disease ratings were made.

Rhizoctonia oryzae = assay: Test G: turf brown patch, preventive spray on creeping bent grass seedlings
Protocol: (the causal agent of turf brown patch) and incubated in a saturated atmosphere at 27° C. for 24 h, and then moved to a growth chamber at 27° C. for 5 days, after which disease ratings were made.

Septoria tritici = assay: Test J: wheat leaf blotch, preventive spray on wheat seedlings; format: in vivo
Text: A dash (-) indicates no test results.

Sclerotinia sclerotiorum = assay: Test C: cucumber white mold, preventive spray on cucumber seedlings

Structure (SMILES)	Test E disease control rating (Botrytis cinerea; 40 ppm (*))	Test F disease control rating (Phytophthora infestans; 40 ppm (*))	Test D disease control rating (Plasmopara viticola; 40 ppm (*))	Test B disease control rating ([1]; 40 ppm (*))	Test A disease control rating (Pythium aphanidermatum; 40 ppm (*))	Test K disease control rating ([2]; 40 ppm (*))	Test I disease control rating (fusarium graminearium; 40 ppm (*))	Test L disease control rating ([3]; 40 ppm (*))	Test H disease control rating (Septoria nodorum; 40 ppm (*))	Test G disease control rating (Rhizoctonia oryzae; 40 ppm (*))	Test J disease control rating (Septoria tritici; 40 ppm (*))	Test C disease control rating (Sclerotinia sclerotiorum; 40 ppm (*))	further results
O=c1c(-n2cccn2)nc(Cl)c(-c2c(F)cccc2F)n1CCCl [compound 124]	99* %	0* %	0* %	0* %	0* %	100* %	0* %	0* %	100* %	21* %	100* %	0* %	–
O=c1c(-n2cncn2)nc(Cl)c(-c2c(F)cccc2F)n1CCCl [compound 125]	0* %	0* %	0* %	0* %	0* %	55* %	0* %	0* %	0* %	0* %	71* %	0* %	–
CS(=O)(=O)CCn1c(-c2c(F)cccc2F)c(Cl)nc(-n2cccn2)c1=O [compound 126]	0* %	0* %	0* %	0* %	0* %	0* %	0* %	0* %	0* %	0* %	19* %	0* %	–
CS(=O)(=O)CCn1c(-c2c(F)cccc2F)c(Cl)nc(-n2cncn2)c1=O [compound 127]	0* %	0* %	0* %	0* %	0* %	0* %	0* %	0* %	0* %	0* %	–	0* %	Test J disease control rating (Septoria tritici; 200 ppm): 16%
CC(C)Cn1c(Cc2ccccc2)c(Cl)nc(-n2cncn2)c1=O [compound 128]	0* %	0* %	0* %	0* %	0* %	0* %	0* %	0* %	0* %	0* %	0* %	0* %	–
CC(C)Cn1c(-c2cccc3ccccc23)c(Cl)nc(-n2cncn2)c1=O [compound 129]	0* %	0* %	0* %	0* %	0* %	0* %	0* %	0* %	0* %	0* %	19* %	0* %	–
CC(C)Cn1c(Cc2ccccc2)c(Cl)nc(-n2cccn2)c1=O [compound 130]	0* %	0* %	0* %	0* %	0* %	0* %	0* %	0* %	0* %	0* %	16* %	0* %	–
CC(C)Cn1c(-c2cccc3ccccc23)c(Cl)nc(-n2cccn2)c1=O [compound 131]	0* %	0* %	0* %	0* %	0* %	0* %	0* %	0* %	0* %	0* %	52* %	0* %	–
CC(C)Cn1c(C(C)c2ccccc2)c(Cl)nc(-n2cccn2)c1=O (stereo not drawn) [compound 132]	0* %	0* %	0* %	0* %	0* %	0* %	0* %	0* %	0* %	0* %	9* %	0* %	–
CC(C)Cn1c(C(C)c2ccccc2)c(Cl)nc(-n2cncn2)c1=O (stereo not drawn) [compound 133]	0* %	0* %	0* %	0* %	0* %	0* %	0* %	0* %	0* %	0* %	23* %	0* %	–
CC(C)Cn1c(-c2cc(F)cc(F)c2F)c(Cl)nc(-n2cccn2)c1=O [compound 139]	100* %	0* %	0* %	0* %	0* %	99* %	0* %	99* %	97* %	91* %	100* %	95* %	–
COC(=O)c1ccc(-c2c(Cl)nc(-n3cncn3)c(=O)n2CC(C)C)cc1 [compound 146]	0* %	0* %	0* %	0* %	0* %	0* %	0* %	0* %	0* %	0* %	5* %	0* %	–
COC(=O)c1ccc(-c2c(Cl)nc(-n3cccn3)c(=O)n2CC(C)C)cc1 [compound 147]	–	–	–	–	–	–	–	–	–	–	–	–	Test E disease control rating (Botrytis cinerea; 200 ppm): 97%; Test F disease control rating (Phytophthora infestans; 200 ppm): 93%; Test D disease control rating (Plasmopara viticola; 200 ppm): 92%; Test B disease control rating ([1]; 200 ppm): 0%; Test A disease control rating (Pythium aphanidermatum; 200 ppm): 0%; Test K disease control rating ([2]; 200 ppm): 80%; Test I disease control rating (fusarium graminearium; 200 ppm): 0%; Test L disease control rating ([3]; 200 ppm): 0%; Test H disease control rating (Septoria nodorum; 200 ppm): 0%; Test G disease control rating (Rhizoctonia oryzae; 200 ppm): 0%; Test J disease control rating (Septoria tritici; 200 ppm): 96%; Test C disease control rating (Sclerotinia sclerotiorum; 200 ppm): 0%
